How the values were obtained:
[1] = target: T1, HSPDE4A4-EGFP (Homo sapiens, UniProt P27815); experiment: Spot formation in CHO cells transfected with HSPDE4A4-EGFP; assay type: cell-based
T1 construct: expressed in transfected cells
Method: Chinese hamster ovary cells (CHO), are transfected with the plasmids described in Example 1 above using the transfection agent FuGENE™ 6 (Boehringer Mannheim Corp, USA) according to the method recommended by the suppliers. Stable transfectants are selected using 1 mg/ml G418 sulphate (Calbiochem) in the growth medium (HAM's F12 nutrient mix with Glutamax-1, 10% foetal bovine serum (FBS), 100 μg penicillin-streptomycin mixture ml^−1 (GibcoBRL, supplied by Life Technologies, Denmark). Cell are cultured at 37° C. in 100% humidity and conditions of normal atmospheric gases supplemented with 5% CO2.
For fluorescence microscopy, cells are allowed to adhere to Lab-Tek chambered coverglasses (Nalge Nunc International, Naperville USA) for at least 24 hours and are then cultured to about 80% confluence. Cells can also be grown in plastic 96-well plates (Polyfiltronics Packard 96-View Plate or Costar Black Plate, clear bottom; both types tissue culture treated) for imaging purposes. Prior to experiments, the cells are cultured over night without G418 sulphate in HAM F-12 medium with glutamax, 100 μg penicillin-streptomycin mixture ml^−1 and 10% FBS. This medium has low autofluorescence enabling fluorescence microscopy of cells straight from the incubator. For certain tests requiring medium of defined composition, particularly with regard to the presence of specific cell growth factors, the HAM's culture medium is replaced prior to imaging with a buffered saline solution (KRW buffer) containing (in mM) 3.6 KCl, 140 NaCl, 2 NaHCO3, 0.5 NaH2PO4, 0.5 MgSO4, 1.5 CaCl2, 10 Hepes, 5 glucose, pH7.4.
Changes in cellular distribution of a transfected probe can be imaged and quantified in an automated fashion. For this purpose cells are cultured to near 80% to 90% confluence in coverglass chambers or plastic 96-well plates, given the relevant treatment and allowed to respond. At the end of the response period, cells are fixed in 4% formaldehyde buffer (Lillies fixative buffer, pH7.0: Bie and Berntsen A/S, Denmark) for 30 minutes to 2 hours, then washed in phosphate buffered saline (PBS, Life Technologies, Denmark). Nuclear DNA is stained with 1 μM Hoechst 33258 (Molecular Probes, Eugene, Oreg., USA) in PBS for 10 minutes at 25° C., then washed twice in PBS. Automated images are collected on a Nikon Diaphot 300 (Nikon, Japan) using a Nikon Plan Fluor 20X/0.5NA objective lens. The basic microscope is fitted with a motorised specimen stage and motorised focus control (Prior Scientific, Fulbourn, Cambridge UK), excitation filter wheel (Sutter Instruments, Novato Calif. USA) and Photometrics PXL series camera with a KAF1400 CCD chip (Photometrics, Tucson, Ariz. USA), each of these items being under the control of an Macintosh 7200/90 computer (Apple Computer, Cupertino, Calif. USA). Automation of stage positioning, focus, excitation filter selection, and image acquisition is performed using macros written in-house, running under IPLab Spectrum for Macintosh (Scanalytics, Fairfax, Va. USA). Fluorescence illumination comes from a 100 W HBO lamp. Images are collected in pairs, the first using a 340/10 nm excitation filter, the second with a 475RDF40 excitation filter (Chroma, Brattleboro, Vt.). Both images are collected via the same dichroic and emission filters, which are optimised for EGFP applications (XF100 filter set, Omega Optical, Brattleboro, Vt.). While the choice of filters for imaging the nuclear stain (Hoechst 33258) is not well matched to that dye's spectral properties, resulting in lower image intensity, it greatly improves the throughput of the procedure by allowing both images to be collected using the same dichroic and emission filter. This eliminates any image registration problems and focus shifts which would result from using two different filter sets, which would require more steps in the acquisition procedure and more extensive image processing to overcome.

[2] = target: T2, HSPDE4A4-ΔLR2-EGFP (Homo sapiens, UniProt P27815, DEL313-320); experiment: Spot formation in CHO cells transfected with HSPDE4A4-ΔLR2-EGFP; assay type: cell-based; conditions: 30 to 0.01 μM
T2 construct: expressed in transfected cells
T2 sequence (P27815 with tags, fused parts or gaps DEL313-320): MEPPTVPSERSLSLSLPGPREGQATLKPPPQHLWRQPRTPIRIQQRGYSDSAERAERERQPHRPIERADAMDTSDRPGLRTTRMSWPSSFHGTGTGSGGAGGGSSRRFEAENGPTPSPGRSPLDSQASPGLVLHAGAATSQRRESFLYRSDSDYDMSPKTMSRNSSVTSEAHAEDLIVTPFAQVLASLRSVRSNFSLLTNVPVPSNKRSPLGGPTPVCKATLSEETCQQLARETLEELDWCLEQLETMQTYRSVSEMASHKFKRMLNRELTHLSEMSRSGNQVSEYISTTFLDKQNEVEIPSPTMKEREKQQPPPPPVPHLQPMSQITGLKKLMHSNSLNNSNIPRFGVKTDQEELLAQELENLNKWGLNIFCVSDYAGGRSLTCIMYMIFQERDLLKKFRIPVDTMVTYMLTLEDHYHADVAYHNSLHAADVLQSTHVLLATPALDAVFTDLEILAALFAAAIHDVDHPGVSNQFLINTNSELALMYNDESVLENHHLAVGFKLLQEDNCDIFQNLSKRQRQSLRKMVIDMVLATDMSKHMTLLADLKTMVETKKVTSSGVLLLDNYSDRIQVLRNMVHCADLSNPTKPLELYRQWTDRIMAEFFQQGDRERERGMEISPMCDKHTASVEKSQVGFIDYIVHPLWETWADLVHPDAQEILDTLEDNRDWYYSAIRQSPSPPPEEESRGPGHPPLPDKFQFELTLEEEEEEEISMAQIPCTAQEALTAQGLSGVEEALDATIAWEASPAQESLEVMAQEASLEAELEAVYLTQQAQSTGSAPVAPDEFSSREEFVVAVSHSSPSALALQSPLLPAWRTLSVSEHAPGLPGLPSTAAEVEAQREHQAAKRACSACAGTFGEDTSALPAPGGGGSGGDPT
Method: Stably transfected (non-clonal) cells are allowed to adhere to chambered coverglasses in HAM's F12 medium containing 10% FBS.
(§1) The cells are then fixed with 4% formaldehyde buffer (pH7) for 1 hour, washed with PBS and stained with 1 μM Hoechst 33258 in PBS for 10 minutes at 25° C., then washed twice in PBS. Automated images are collected and analysed for the number of spots per cell as described in Example 2.

[3] = target: T3, HSPDE4A4-H506N-EGFP (Homo sapiens, UniProt P27815, H506N); experiment: Spot formation in CHO cells transfected with HSPDE4A4-H506N-EGFP; assay type: cell-based; conditions: clonal cells, over the concentrations tested
T3 construct: expressed in transfected cells
T3 sequence (P27815 whole entry H506N): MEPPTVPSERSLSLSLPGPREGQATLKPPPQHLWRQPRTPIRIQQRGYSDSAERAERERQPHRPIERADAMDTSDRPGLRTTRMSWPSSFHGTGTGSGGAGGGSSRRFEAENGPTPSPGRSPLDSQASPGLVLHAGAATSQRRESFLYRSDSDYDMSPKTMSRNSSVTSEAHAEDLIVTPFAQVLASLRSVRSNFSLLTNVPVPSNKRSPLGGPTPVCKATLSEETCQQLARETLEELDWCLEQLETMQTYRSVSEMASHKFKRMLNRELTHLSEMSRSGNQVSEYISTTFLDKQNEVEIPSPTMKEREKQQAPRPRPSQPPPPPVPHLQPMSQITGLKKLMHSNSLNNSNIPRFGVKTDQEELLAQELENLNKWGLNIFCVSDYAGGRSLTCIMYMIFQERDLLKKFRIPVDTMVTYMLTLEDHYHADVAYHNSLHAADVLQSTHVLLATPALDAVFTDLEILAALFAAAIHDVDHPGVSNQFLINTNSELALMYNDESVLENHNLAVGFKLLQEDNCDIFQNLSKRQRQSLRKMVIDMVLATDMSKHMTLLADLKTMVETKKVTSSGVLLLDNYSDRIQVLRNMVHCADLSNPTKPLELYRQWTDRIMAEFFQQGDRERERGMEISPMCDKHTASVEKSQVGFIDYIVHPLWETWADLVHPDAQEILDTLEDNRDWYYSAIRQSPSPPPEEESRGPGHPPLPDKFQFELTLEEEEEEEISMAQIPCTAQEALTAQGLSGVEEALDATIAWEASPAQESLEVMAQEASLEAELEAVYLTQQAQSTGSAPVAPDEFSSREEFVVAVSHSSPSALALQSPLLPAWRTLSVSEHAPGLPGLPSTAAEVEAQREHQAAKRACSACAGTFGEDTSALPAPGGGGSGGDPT
Method: as §1
as §1, with “Cells are grown in HAM's F12 medium plus 10% FBS plus various concentrations of inhibitors for 23.5 hours. The” for “The”

[4] = target: T1, HSPDE4A4-EGFP; experiment: Dispersal of preformed Rolipram-induced spots, HSPDE4A4-EGFP CHO cells; assay type: cell-based; conditions: yes/no
Method: For the microscopic assessment of spot dispersal, stably transfected (non-clonal) cells transfected with the HSPDE4A4-EGFP probe are allowed to adhere to chambered coverglasses in HAM's F12 medium containing 10% FBS. […] Chambered coverglasses are then transferred to a Zeiss 135 inverted microscope for time lapse imaging as described in Example 2, above. At a given point after starting an experiment, a mixture of IBMX and forskolin is added to give final concentrations of 1 mM and 50 μM, respectively. Images are captured at regular intervals to form a time lapse sequence of the response, also as described in Example 2.
The plate is then run in the FLIPR system at 37° C., with addition of IBMX and forskolin to all wells at final concentrations of 500 μM and 50 μM respectively after the first minute. The experiment is continued for a further 45 minutes, readings being taken at intervals of 1 minute.
Non-clonal CHO cells stably transfected with the HSPDE4A4-EGFP probe are allowed to adhere to chambered coverglasses in HAM's F12 medium containing 10% FBS and to grow for 24 hours.
Clonal CHO cells stably transfected with the HSPDE4A4-EGFP probe are allowed to adhere to chambered coverglasses in HAM's F12 medium containing 10% FBS and to grow for 5 days without change of medium, which by this time is serum-depleted.
Individual wells are then treated with either 50 μM forskolin plus 500 μM IBMX or 200 nM PMA plus 2 μM ionomycin.

[5] = target: T4, HSPDE4A1-EGFP (Homo sapiens, UniProt P27815); experiment: Competitive assay: reversal of Rolipram-induced spot dispersal, HSPDE4A1-EGFP CHO cells; assay type: cell-based; conditions: predicted
T4 construct: the ca. 1.95 kb coding region of HSPDE4A1 (GenBank Acc.no. U97584) is amplified; expressed in transfected cells
T4 sequence (P27815 1-647 isoform P27815-4): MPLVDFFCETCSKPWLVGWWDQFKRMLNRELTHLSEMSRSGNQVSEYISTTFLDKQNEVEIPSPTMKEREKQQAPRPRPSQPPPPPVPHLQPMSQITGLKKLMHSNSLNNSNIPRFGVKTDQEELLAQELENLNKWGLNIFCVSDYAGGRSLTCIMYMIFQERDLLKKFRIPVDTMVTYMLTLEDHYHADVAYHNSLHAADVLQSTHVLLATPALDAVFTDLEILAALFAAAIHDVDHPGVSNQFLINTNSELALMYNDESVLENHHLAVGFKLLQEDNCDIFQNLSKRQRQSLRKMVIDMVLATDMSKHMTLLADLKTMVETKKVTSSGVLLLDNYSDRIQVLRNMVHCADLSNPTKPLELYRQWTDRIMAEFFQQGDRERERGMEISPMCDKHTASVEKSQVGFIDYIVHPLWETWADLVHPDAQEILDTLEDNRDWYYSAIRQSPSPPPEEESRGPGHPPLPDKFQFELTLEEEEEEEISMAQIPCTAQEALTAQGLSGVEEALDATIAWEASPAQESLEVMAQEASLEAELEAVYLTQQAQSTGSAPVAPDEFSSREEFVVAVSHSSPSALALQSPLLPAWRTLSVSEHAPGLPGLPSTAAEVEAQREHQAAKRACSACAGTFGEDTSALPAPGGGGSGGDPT

[6] = system: PDE4; conditions: yes/no; cited from earlier work
[7] = human, in vivo; cited from earlier work

T1 sequence (P27815 whole entry): as the sequence (P27815 whole entry H506N) above, with N506H counted along it

Compound: COc1ccc([C@]2(C#N)CC[C@@H](C(=O)O)CC2)cc1OC1CCCC1 [Ariflo®]
- formation of spots, compound alone (in words) ([1]; observed up to 24 hours): does not by itself produce spots
- Formation of PDE4A4 spots ([1]; yes/no): no
- formation of spots, compound alone (in words) [2]: does not by itself produce spots
- spot formation response (in words) [3]: does not by itself produce spots
- Removal of Rolipram-induced PDE4A4-spots [4]: yes
- Reversal of Rolipram-induced removal of PDE4A1 spots (predicted, not tested) [5]: yes
- Inhibition of PDE4 catalytic activity [6]: yes
- Clinical effect [7]: anti-
- Emesis [7]: no
